According to US20110319392A1, “Thiazole Sulfonamide And Oxazole Sulfonamide Kinase Inhibitors” (priority 2009, published 2011):
Counter-ions that a name gives are not always drawn.

How the values were obtained:
SK-MEL-3 tumor cells = assay: Cell growth inhibition assay (CellTiter-Glo), SK-MEL-3; format: cell-based, Human; details: for IC50: Homo sapiens, SK-MEL3
Procedure: (§1) Human breast tumor cells (BT474) were cultured in RPMI (Mediatech […]), containing 10% FBS (JRH Biosciences 12176) and 1% penicillin-streptomycin (Invitrogen 15140). Human head and neck tumor cells (HN5) were cultured in high glucose DMEM (Mediatech 50-013-PB) containing 10% FBS and 1% penicillin-streptomycin. Human colon tumor cells (Colo205) were cultured in RPMI (Mediatech 50-020-PB) containing 10% FBS and 1% penicillin-streptomycin. Human melanoma cancer cells (SK-MEL-28) were cultured in EMEM with nonessential amino acids (Mediatech 50-011-PB) containing 10% FBS, 1% sodium pyruvate (JT Baker 3354-04), and 1% penicillin-streptomycin. Human melanoma cancer cells (A375P F11s) were cultured in RPMI (Mediatech 50-020-PB) containing 10% FBS, 1% sodium pyruvate, and 1% penicillin-streptomycin. Human colon cancer cells (HT-29) were cultured in high glucose DMEM (Mediatech 50-013-PB) containing 10% FBS and 1% penicillin-streptomycin. Human melanoma cancer cells (SK-MEL-3) were cultured in McCoy's 5A (50-025-PB) containing 15% FBS, and 1% penicillin-streptomycin. All cell lines were maintained at 37° C. in a humidified 5% CO2, 95% air incubator. Cells were harvested using trypsin/EDTA (Invitrogen 25200), counted using a haemocytometer, and plated. For 96-well assays (using white full-area NUNC plates cat. #136102), cells were plated in 105 μL at the following densities (cells/well): HNS, 500; Colo 205, 500; SK-MEL-28, 500; A375P F11s, 500; HT-29, 500; SK-MEL-3, 500; and BT474, 3000. For 384-well assays (white full-area NUNC plates, cat. #781080), cells were plated in 48 μL at the following densities (cells/well): HNS, 500; Colo205, 500; SK-MEL-28, 500; A375P F11s, 500; HT-29, 500; SK-MEL-3, 500; and BT474, 2000.
(§2) The next day, compounds were diluted as follow: For 96-well assays, 13.5 μL of compound in DMSO were diluted using nine (9) serial 1:3 dilutions of 4.5 μL in 9 of DMSO. Medium (270 μL/well of RPMI with 10% FBS and 1% penicillin-streptomycin) was added to the plates. Aliquots (7 μL) were added to cells in the final assay giving a final DMSO concentration of 0.2%. For 384-well assays, 15 μL of compound in DMSO were diluted using nine (9) serial 1:3 dilutions of 5 μL in 10 μL of DMSO, followed by a further dilution of 5 μL of compound with 95 μL of medium, of which 2 μL were added to cells in the final assay giving a final DMSO concentration of 0.2%. Cells were incubated at 37° C., 5% CO2 for 3 days.
(§3) Total ATP was measured (as a surrogate estimate of cell number) using CellTiter-Glo® reagent (Promega G7571). Briefly, plates were removed from the incubator and allowed to equilibrate to room temperature for 30 minutes. CellTiter-Glo® (25 μL or 55 μL for 384-well or 96-well assays, respectively) reagent was added to each well and plates were shaken on an orbital plate shaker for 2 minutes. Plates were incubated without shaking for a further 30 minutes and read on an LJL Analyst GT reader in luminometer mode with an integration time of 0.5 seconds per well. Percent inhibition of cell growth was calculated relative to DMSO vehicle-treated control wells. Concentration of compound required to give 50% inhibition of vehicle-treated control cell growth (IC50) was interpolated using a 4-parameter fit for determining IC50 using the following equation: Y=A +((B−A)/(1+((C/X)̂D))) where […].

BT474 tumor cells = assay: Cell growth inhibition assay (CellTiter-Glo), BT474; format: cell-based, Human; details: Homo sapiens, BT-474, 72 h, 3 days incubation
Procedure: as §1, §2, §3

B-Raf = B-Raf (Homo sapiens, UniProt P15056); assay: B-Raf Accelerated MEK ATPase assay (BRAMA), Method A or B; format: biochemical; details: Method B: final MEK 150 nM, single end point read
Sequence of B-Raf (P15056 whole entry): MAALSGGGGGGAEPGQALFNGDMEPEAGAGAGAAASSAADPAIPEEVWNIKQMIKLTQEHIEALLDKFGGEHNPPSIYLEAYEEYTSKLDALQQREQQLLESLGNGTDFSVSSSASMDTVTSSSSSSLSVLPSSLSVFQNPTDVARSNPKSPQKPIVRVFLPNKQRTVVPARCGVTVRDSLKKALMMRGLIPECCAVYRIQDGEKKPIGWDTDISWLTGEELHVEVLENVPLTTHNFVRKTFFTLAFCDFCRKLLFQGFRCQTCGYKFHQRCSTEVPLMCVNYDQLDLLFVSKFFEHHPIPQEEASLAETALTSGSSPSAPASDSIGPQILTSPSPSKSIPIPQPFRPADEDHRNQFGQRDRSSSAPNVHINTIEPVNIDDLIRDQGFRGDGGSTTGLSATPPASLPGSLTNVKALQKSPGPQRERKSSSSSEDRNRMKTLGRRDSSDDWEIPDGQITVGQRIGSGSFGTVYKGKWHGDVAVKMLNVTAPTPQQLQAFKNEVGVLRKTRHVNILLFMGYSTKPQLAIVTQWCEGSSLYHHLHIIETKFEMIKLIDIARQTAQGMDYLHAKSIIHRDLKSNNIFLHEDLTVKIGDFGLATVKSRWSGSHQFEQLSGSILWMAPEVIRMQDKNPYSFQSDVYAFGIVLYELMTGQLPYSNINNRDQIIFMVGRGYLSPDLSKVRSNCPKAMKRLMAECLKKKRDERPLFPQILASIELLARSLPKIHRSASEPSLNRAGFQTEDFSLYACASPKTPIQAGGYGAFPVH
Procedure, shortened: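 ADP production, initiated by catalytic activated Raf with unphosphorylated MEK, is followed by NADH oxidation through a PK/LDH coupled system. Method B differs from the kinetic Method A by a single end-point read and 150 nM final MEK.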

Row | IC50 (SK-MEL-3 tumor cells) [nM] | IC50 (BT474 tumor cells) [nM] | IC50 (B-Raf) [nM] | SMILES | Activity in SK-MEL-3 Tumor Cells (SK-MEL-3 tumor cells)
1 | 100 to 1000 | > 1000 | < 100 | CC(C)c1nc(-c2ccc(F)c(NS(=O)(=O)c3ccccc3F)c2)c(-c2ccnc(Nc3ccc(N4CCN(CCS(C)(=O)=O)CC4)c(F)c3)n2)s1 [Example 22, 2-Fluoro-N-{2-fluoro-5-[5-{2-[(3-fluoro-4-}4-[2-(methylsulfonyl)ethyl]-1-piperazinyl}phenyl)amino]-4-pyrimidinyl}-2-(1-methylethyl)-1,3-thiazol-4-yl]phenyl}benzenesulfonamide hydrochloride] | 
2 | < 100 | > 1000 | < 100 | CC(C)c1nc(-c2ccc(F)c(NS(=O)(=O)c3c(F)cccc3F)c2)c(-c2ccnc(Nc3ccc(N4CCOCC4)nc3)n2)s1 [Example 23, 2,6-Difluoro-N-{2-fluoro-5-[2-(1-methylethyl)-5-(2-{[6-(4-morpholinyl)-3-pyridinyl]amino}-4-pyrimidinyl)-1,3-thiazol-4-yl]phenyl}benzenesulfonamide] | 
3 | 100 to 1000 | > 1000 | < 100 | CC(C)c1nc(-c2ccc(F)c(NS(=O)(=O)c3c(F)cccc3F)c2)c(-c2ccnc(Nc3ccc(N4CCC(C#N)CC4)nc3)n2)s1 [Example 24, N-{5-[5-(2-{[6-(4-Cyano-1-piperidinyl)-3-pyridinyl]amino}-4-pyrimidinyl)-2-(1-methylethyl)-1,3-thiazol-4-yl]-2-fluorophenyl}-2,6-difluorobenzenesulfonamide] | 
4 | < 100 | > 1000 | < 100 | CN(C)c1nc(-c2ccc(F)c(NS(=O)(=O)c3c(F)cccc3F)c2)c(-c2ccnc(Nc3ccc(N4CCOCC4)nc3)n2)s1 [Example 27, N-{5-[2-(Dimethylamino)-5-(2-{[6-(4-morpholinyl)-3-pyridinyl]amino}-4-pyrimidinyl)-1,3-thiazol-4-yl]-2-fluorophenyl}-2,6-difluorobenzenesulfonamide] | 
5 | < 100 | > 1000 | < 100 | CC(C)c1nc(-c2cccc(NS(=O)(=O)c3c(F)cccc3F)c2F)c(-c2ccnc(Nc3cnc(N4CCOCC4)c(F)c3)n2)s1 [Example 30, 2,6-Difluoro-N-{2-fluoro-3-[5-(2-{[5-fluoro-6-(4-morpholinyl)-3-pyridinyl]amino}-4-pyrimidinyl)-2-(1-methylethyl)-1,3-thiazol-4-yl]phenyl}benzenesulfonamide] | 
6 | < 100 | > 1000 | < 100 | CC(C)c1nc(-c2ccnc(NS(=O)(=O)c3c(F)cccc3F)c2)c(-c2ccnc(Nc3ccc(N4CCOCC4)nc3)n2)s1 [Example 32, 2,6-Difluoro-N-{4-[2-(1-methylethyl)-5-(2-{[6-(4-morpholinyl}-3-pyridinyl]amino}-4-pyrimidinyl)-1,3-thiazol-4-yl]-2-pyridinyl}benzenesulfonamide] | 
7 |  | > 1000 | < 100 | CCc1nc(-c2cccc(CNS(=O)(=O)c3ccccc3)c2)c(-c2ccnc(Nc3ccc(N4CCOCC4)c(F)c3)n2)s1 [Example 34] | + (activity of >1 μM in SK-MEL-3 tumor cells)
8 |  | > 1000 | 100 to 1000 | CC(C)c1nc(-c2cccc(NS(=O)(=O)C3CCCCC3)c2)c(-c2ccnc(Nc3ccc(N4CCOCC4)c(F)c3)n2)s1 [Example 38] | + (activity of >1 μM in SK-MEL-3 tumor cells)
9 | < 100 | > 1000 | < 100 | Cc1nc(Cl)sc1S(=O)(=O)Nc1cccc(-c2nc(C(C)C)sc2-c2ccnc(Nc3ccc(N4CCOCC4)nc3)n2)c1 [Example 42] | 
10 | < 100 | > 1000 | < 100 | COc1ccc(S(=O)(=O)Nc2cccc(-c3nc(C(C)C)sc3-c3ccnc(Nc4ccc(N5CCOCC5)nc4)n3)c2)cn1 [Example 49] | 
11 | < 100 | > 1000 | < 100 | CC(C)c1nc(-c2cccc(NS(=O)(=O)c3cccs3)c2)c(-c2ccnc(Nc3ccc(N4CCOCC4)nc3)n2)s1 [Example 51] | 

The remaining lines, values behind:

Row | SMILES | IC50 (SK-MEL-3 tumor cells) [nM] | IC50 (BT474 tumor cells) [nM] | IC50 (B-Raf) [nM] | Activity in SK-MEL-3 Tumor Cells (SK-MEL-3 tumor cells)
12 | CC(C)c1nc(-c2ccc(F)c(NS(=O)(=O)c3c(F)cccc3F)c2)c(-c2ccnc(Nc3ccc(N4CCN(CCF)CC4)c(F)c3)n2)s1 [Example 25] | 100 to 1000 | > 1000 | < 100 | 
13 | O=S(=O)(Nc1cc(-c2nc(N3CCCC3)sc2-c2ccnc(Nc3ccc(N4CCOCC4)nc3)n2)ccc1F)c1c(F)cccc1F [Example 26, 2,6-Difluoro-N-{2-fluoro-5-[5-(2-{(6-(4-morpholinyl)-3-pyridinyl]amino}-4-pyrimidinyl)-2-(1-pyrrolidinyl)-1,3-thiazol-4-yl]phenyl}benzenesulfonamide] | 100 to 1000 | > 1000 | < 100 | 
14 | CC(C)(C)c1nc(-c2ccc(F)c(NS(=O)(=O)c3c(F)cccc3F)c2)c(-c2ccnc(Nc3ccc(N4CCOCC4)nc3)n2)s1 [Example 28, N-{5-[2-(1,1-Dimethylethyl)-5-(2-{[[6-(4-morpholinyl)-3-pyridinyl]amino}-4-pyrimidinyl)-1,3-thiazol-4-yl]-2-fluorophenyl]-2,6-difluorobenzenesulfonamide hydrochloride] | < 100 | > 1000 | < 100 | 
15 | CC(C)c1nc(-c2cccc(NS(=O)(=O)c3c(F)cccc3F)c2F)c(-c2ccnc(Nc3ccc(N4CCN(CCF)CC4)c(F)c3)n2)s1 [Example 29, 2,6-Difluoro-N-{2-fluoro-3-[5-[2-({3-fluoro-4-[4-(2-fluoroethyl)-1-piperazinyl]phenyl}amino)-4-pyrimidinyl]-2-(1-methylethyl)-1,3-thiazol-4-yl]phenyl}benzenesulfonamide] | < 100 | > 1000 | < 100 | 
16 | CC(C)c1nc(-c2cc(F)c(F)c(NS(=O)(=O)c3cccc(F)c3)c2)c(-c2ccnc(Nc3cnc(N4CCOCC4)c(F)c3)n2)s1 [Example 31, N-{2,3-Difluoro-5-[5-(2-{[5-fluoro-6-(4-morpholinyl)-3-pyridinyl]amino}-4-pyrimidinyl)-2-(1-methylethyl)-1,3-thiazol-4-yl]phenyl}-3-fluorobenzenesulfonamide] | 100 to 1000 | > 1000 | < 100 | 
17 | CC(C)c1nc(-c2ccnc(NS(=O)(=O)c3c(F)cccc3F)c2)c(-c2ccnc(Nc3cnc(N4CCOCC4)c(F)c3)n2)s1 [Example 33] | < 100 | > 1000 | < 100 | 
18 | CC(=O)N1CCN(c2ccc(Nc3nccc(-c4sc(C(C)C)nc4-c4cccc(NS(=O)(=O)c5cn(C)cn5)c4)n3)cn2)CC1 [Example 36] | 100 to 1000 | > 1000 | < 100 | 
19 | CC(=O)N1CCN(c2ccc(Nc3nccc(-c4sc(C(C)C)nc4-c4cccc(NS(=O)(=O)C5CCCCC5)c4)n3)cn2)CC1 [Example 39] | 100 to 1000 | > 1000 | < 100 | 
20 | CC(C)c1nc(-c2cccc(NS(=O)(=O)c3c(F)cccc3F)n2)c(-c2ccnc(Nc3ccc(N4CCOCC4)nc3)n2)s1 [Example 44] | 100 to 1000 | > 1000 | < 100 | 
21 | CC(C)c1nc(-c2cncc(NS(=O)(=O)c3c(F)cccc3F)c2)c(-c2ccnc(Nc3ccc(N4CCOCC4)nc3)n2)s1 [Example 47] | < 100 | > 1000 | < 100 | 
22 | CC(C)c1nc(-c2cccc(NS(=O)(=O)c3cccnc3)c2)c(-c2ccnc(Nc3ccc(N4CCOCC4)nc3)n2)s1 [Example 52] | < 100 | > 1000 | < 100 | 
